Values quoted from earlier work, collected in patent US12727761B2, “Dosimetry system for photodynamic anitmicrobial therapy device of infectious keratitis” (UNIVERSITY OF MIAMI, priority 2020, dated 2026).

Key:
[1] = system: Candida albicans; conditions: erythrosine-mediated PDT
[2] = system: corneal infection; conditions: RB-PDAT as experimental therapy for corneal infection
[3] = system: fungal and bacterial isolates derived from patients with infectious keratitis; conditions: Rose Bengal photodynamic antimicrobial therapy (RB-PDAT)
[4] = system: keratitis derived Acanthamoeba castellanii

**Q.** With O=C1OC2(c3ccccc31)c1cc(I)c(O)c(I)c1Oc1c2cc(I)c(O)c1I [erythrosine] as the molecule, how does the reduction in concentration [1] read?
**A.** The reduction in concentration was 1.97 log10.

**Q.** Which results are given for O=C([O-])c1c(Cl)c(Cl)c(Cl)c(Cl)c1-c1c2cc(I)c(=O)c(I)c-2oc2c(I)c([O-])c(I)cc12.[Na+].[Na+] [Rose Bengal]?
**A.** patients who avoided undergoing emergency corneal transplantation [2]: approximately 72%; inhibition of fungal and bacterial isolates [3]: fully inhibit

**Q.** Which results are given for CN(C)c1ccc2nc3ccc(=[N+](C)C)cc-3sc2c1 [methylene blue]?
**A.** respiratory activity ([4]; methylene blue-mediated PDT): significantly reduce; effects with traditional Acanthamoeba treatment regimens ([4]; methylene blue-mediated PDT combined with traditional treatment regimens): synergistic effects
